Experimental data: patent US20070049592A1, “Bis-aryl urea compounds and methods of use” (priority 2005, published 2007)

What was measured:
[1] = system: Human Umbilical Vein Endothelial cells; assay: HUVEC proliferation assay (VEGF); format: cell-based; details: VEGF-stimulated HUVEC proliferation
Description: Human Umbilical Vein Endothelial cells are purchased from Clonetics, Inc., as cryopreserved cells harvested from a pool of donors. These cells, at passage 1, are thawed and expanded in EBM-2 complete medium, until passage 2 or 3. The cells are trypsinized, washed in DMEM+10% FBS+antibiotics, and spun at 1000 rpm for 10 min. Prior to centrifugation of the cells, a small amount is collected for a cell count. After centrifugation, the medium is discarded, and the cells are resuspended in the appropriate volume of DMEM+10% FBS+antibiotics to achieve a concentration of 3×10^5 cells/mL. Another cell count is performed to confirm the cell concentration. The cells are diluted to 3×10^4 cells/mL in DMEM+10% FBS+antibiotics, and 100 μL of cells are added to a 96-well plate. The cells are incubated at 37° C. for 22 h.
Prior to the completion of the incubation period, compound dilutions are prepared. Five-point, five-fold serial dilutions are prepared in DMSO, at concentrations 400-fold greater than the final concentrations desired. 2.5 μL of each compound dilution are diluted further in a total of 1 mL DMEM+10% FBS+antibiotics (400× dilution). Medium containing 0.25% DMSO is also prepared for the 0 μM compound sample. At the 22 h timepoint, the medium is removed from the cells, and 100 μL of each compound dilution is added. The cells are incubated at 37° C. for 2-3 h.
During the compound pre-incubation period, the growth factors are diluted to the appropriate concentrations. Solutions of DMEM+10% FBS+antibiotics, containing either VEGF or bFGF at the following concentrations: 50, 10, 2, 0.4, 0.08, and 0 ng/mL are prepared. For the compound-treated cells, solutions of VEGF at 550 ng/mL or bFGF at 220 ng/mL for 50 ng/mL or 20 ng/mL final concentrations, respectively, are prepared since 10 μL of each will be added to the cells (110 μL final volume). At the appropriate time after adding the compounds, the growth factors are added. VEGF is added to one set of plates, while bFGF is added to another set of plates. For the growth factor control curves, the media on wells B4-G6 of plates 1 and 2 are replaced with media containing VEGF or bFGF at the varying concentrations (50-0 ng/mL). The cells are incubated at 37° C. for an additional 72 h.
At the completion of the 72 h incubation period, the medium is removed, and the cells are washed twice with PBS. After the second wash with PBS, the plates are tapped gently to remove excess PBS, and the cells are placed at −70° C. for at least 30 min. The cells are thawed and analyzed using the CyQuant fluorescent dye (Molecular Probes C-7026), following the manufacturer's recommendations. The plates are read on a Victor/Wallac 1420 workstation at 485 nm/530 nm (excitation/emission). Raw data is collected and analyzed using a 4-parameter fit equation in XLFit. IC50 values are then determined.

[2] = system: production of TNF by monocytes activated with bacterial lipopolysaccharide (LPS); assay: Lipopolysaccharide-activated monocyte TNF production assay; format: cell-based; details: Homo sapiens, as a determination of p38 activity, read-out: IC50 values in the monocyte assay (LPS induced TNF release)
Description: Test compounds were evaluated in vitro for the ability to inhibit the production of TNF by monocytes activated with bacterial lipopolysaccharide (LPS). Fresh residual source leukocytes (a byproduct of plateletpheresis) were obtained from a local blood bank, and peripheral blood mononuclear cells (PBMCs) were isolated by density gradient centrifugation on Ficol-Paque Plus (Pharmacia). PBMCs were suspended at 2×10^6/ml in DMEM supplemented to contain 2% FCS, 10 mM, 0.3 mg/ml […], 100 U/ml penicillin G and […] streptomycin sulfate (complete media). Cells were plated into Falcon flat bottom, 96 well culture plates (200 μl/well) and cultured overnight at 37° C. and 6% CO2. Non-adherent cells were removed by washing with 200 μl/well of fresh medium. Wells containing adherent cells (˜70% monocytes) were replenished with 100 μl of fresh medium.
Test compounds were dissolved in […]. Compound stock solutions were prepared to an initial concentration of […]. Stocks were diluted initially to 20-200 μM in complete media. Nine two-fold serial dilutions of each compound were then prepared in complete medium.
One hundred microliters of each test compound dilution were added to microtiter wells containing adherent monocytes and 100 μl complete medium. Monocytes were cultured with test compounds for 60 min at which time 25 μl of complete medium containing 30 ng/ml lipopolysaccharide from E. coli K532 were added to each well. Cells were cultured an additional 4 hrs. Culture supernatants were then removed and TNF presence in the supernatants was quantified using an ELISA.
Flat bottom, 96 well Corning High Binding ELISA plates were coated overnight (4° C.) with 150 μL/well of 3 μg/ml murine anti-human TNF-α MAb (R&D Systems #MAB210). Wells were then blocked for 1 hr at room temperature with 200 μL/well of CaCl2-free ELISA buffer supplemented to contain 20 mg/ml BSA (standard ELISA buffer: […], 150 mM NaCl, 2 mM CaCl2, 0.15 mM thimerosal, pH 7.4). Plates were washed and replenished with 100 μl of test supernatants (diluted 1:3) or standards. Standards consisted of eleven 1.5-fold serial dilutions from a stock of 1 ng/ml recombinant human TNF (R&D Systems). Plates were incubated at room temperature for 1 hr on orbital shaker (300 rpm), washed and replenished with 100 μl/well of 0.5 μg/ml goat anti-human TNF-α (R&D systems #AB-210-NA) biotinylated at a 4:1 ratio. Plates were incubated for 40 min, washed and replenished with 100 μl/well of alkaline phosphatase-conjugated streptavidin (Jackson ImmunoResearch #016-050-084) at 0.02 μg/ml. Plates were incubated 30 min, washed and replenished with 200 μl/well of 1 mg/ml of p-nitrophenyl phosphate. After 30 min, plates were read at 405 nm on a Vmax plate reader.
Standard curve data were fit to a second order polynomial and unknown TNF-α concentrations determined from their OD by solving this equation for concentration. TNF concentrations were then plotted vs. test compound concentration using a second order polynomial. This equation was then used to calculate the concentration of test compounds causing a 50% reduction in TNF production.

| Structure (SMILES) | IC50 [2] [µM] | IC50 [1] [µM] |
| --- | --- | --- |
| CNc1cc(N(C)C(=O)Nc2cc(C(=O)Nc3ccc(C(C)(C)C)cc3)ccc2C)ncn1 [Example 25] | ≤ 5 | < 5 |
| CNc1ncnc(N(C)C(=O)Nc2cc(C(=O)Nc3ccc4ccccc4c3)ccc2C)n1 [Example 30, 4-methyl-3-(((methyl(4-(methylamino)-1,3,5-triazin-2-yl)amino)carbonyl)amino)-N-(2-naphthalenyl) benzamide] | ≤ 5 | < 5 |
| CNc1cc(N(C)C(=O)Nc2cc(C(=O)Nc3cccc(-c4ccccc4)c3)ccc2C)ncn1 [Example 31, N-(1,1′-biphenyl-3-yl)-4-methyl-3-(((methyl(6-(methylamino)-4-pyrimidinyl)amino)carbonyl)amino)benzamide] | ≤ 5 | < 5 |
| CNc1cc(N(C)C(=O)Nc2cc(C(=O)Nc3ccc(C(F)(F)F)cc3)ccc2C)ncn1 [Example 32, 4-methyl-3-(((methyl(6-(methylamino)-4-pyrimidinyl)amino)carbonyl)amino)-N-(4-(trifluoromethyl)phenyl)benzamide] | ≤ 5 | < 5 |

The next lines start with results.

| IC50 [2] [µM] | Structure (SMILES) | IC50 [1] [µM] |
| --- | --- | --- |
| ≤ 5 | CNc1cc(N(C)C(=O)Nc2cc(C(=O)Nc3cccc(C(F)(F)F)c3)ccc2C)ncn1 [Example 16, ′4-methyl-3-(((methyl(6-(methylamino)-4-pyrimidinyl)amino)carbonyl)amino)-N-(3-(trifluoromethyl)phenyl) benzamide] | < 5 |
| ≤ 5 | CNc1cc(N(C)C(=O)Nc2cc(C(=O)Nc3cccc(C(C)C)c3)ccc2C)ncn1 [Example 17, 4-methyl-N-(3-(1-methylethyl)phenyl)-3-(((methyl(6-(methylamino)-4-pyrimidinyl)amino)carbonyl)amino) benzamide] | < 5 |
| ≤ 5 | CNc1cc(N(C)C(=O)Nc2cc(C(=O)Nc3cc(OC)cc(C(F)(F)F)c3)ccc2C)ncn1 [Example 18, 4-methyl-3-(((methyl(6-(methylamino)-4-pyrimidinyl)amino)carbonyl)amino)-N-(3-(methyloxy)-5-(trifluoromethyl)phenyl) benzamide] | < 5 |
| ≤ 5 | CNc1cc(N(C)C(=O)Nc2cc(C(=O)Nc3cccc(C(F)(F)F)c3C)ccc2C)ncn1 [Example 20, 4-methyl-3-(((methyl(6-(methylamino)-4-pyrimidinyl)amino)carbonyl)amino)-N-(2-methyl-3-(trifluoromethyl)phenyl)benzamide] | < 5 |
| ≤ 5 | CNc1cc(N(C)C(=O)Nc2cc(C(=O)Nc3ccc4ccccc4c3)ccc2C)ncn1 [Example 23, 4-methyl-3-(((methyl(6-(methylamino)-4-pyrimidinyl)amino)carbonyl)amino)-N-(2-naphthalenyl) benzamide] | < 5 |
| ≤ 5 | CNc1cc(N(C)C(=O)Nc2cc(C(=O)Nc3cccc(C(F)(F)F)c3F)ccc2C)ncn1 [Example 24, N-(2-fluoro-3-(trifluoromethyl)phenyl)-4-methyl-3-((methyl(6-(methylamino)-4-pyrimidinyl)amino)carbonylamino)benzamide] | < 5 |
